Assay results: PubChem BioAssay AID858 (Vanderbilt High Throughput Screening Facility, 2007)
Activity calls are given as the source filed them.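 The calls were made as follows: active = at least two of three replicate dose series yielding a converging curve fit, whether well or thinly supported; inactive = the rest.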

Target: D(1A) dopamine receptor (Homo sapiens) (UniProt P21728)
Experiment: concentration-dependent D1 reporter signal change – cell-based, CRE-luciferase, HEK293, dopamine EC30, D1 allosteric modulator project, dose response (AID 858);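 also: HEK 293 cells bearing human D1 receptor stimulated by dopamine at its EC30; luciferase light from a cAMP response element reporter gene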

D(1A) dopamine receptor (Homo sapiens), sequence (P21728 whole entry, looked up): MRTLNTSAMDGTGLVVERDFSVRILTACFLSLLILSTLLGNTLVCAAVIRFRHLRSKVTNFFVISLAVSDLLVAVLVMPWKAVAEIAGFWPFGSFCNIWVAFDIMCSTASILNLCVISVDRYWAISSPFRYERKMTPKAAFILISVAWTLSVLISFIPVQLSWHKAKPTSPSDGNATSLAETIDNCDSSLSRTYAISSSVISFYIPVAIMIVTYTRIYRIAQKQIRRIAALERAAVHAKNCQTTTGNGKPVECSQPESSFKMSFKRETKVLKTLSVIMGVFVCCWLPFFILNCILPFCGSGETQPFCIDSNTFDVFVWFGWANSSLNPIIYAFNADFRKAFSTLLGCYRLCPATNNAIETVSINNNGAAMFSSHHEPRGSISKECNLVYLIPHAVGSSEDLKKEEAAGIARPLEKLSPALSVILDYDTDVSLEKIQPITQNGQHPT

| SMILES | outcome | EC50 |
| --- | --- | --- |
| CC1(C)CC(=O)C2=C(C1)OC(N)=C(C#N)C2c1cccc(OC(=O)c2ccco2)c1 (configuration not stated) | inactive |  |
| COc1ccc(S(=O)(=O)N2CCSC2c2ccc(OC)c(OC)c2)cc1 (configuration not stated) | inactive |  |
| CCc1nc(N2CCCCC2)c2oc3ccccc3c2n1 | inactive |  |
| O=C1CC(c2ccsc2)c2cc3c(cc2N1)OCCO3 (configuration not stated) | inactive |  |
| CCOC(=O)CSc1nc2c(sc(=S)n2Cc2ccco2)c(=O)n1-c1ccccc1 | inactive |  |
| COc1ccc(-c2cc(=O)oc3c(C)c(O)c(CN(C)C)cc23)cc1 | inactive |  |
| COc1ccc(C2CC(=O)Nc3ccccc3S2(=O)=O)cc1OC (configuration not stated) | inactive |  |
| CCCCn1c(=NC(=O)c2ccco2)c(C(=O)OCC)cc2c(=O)n3ccccc3nc21 | inactive |  |
| COc1ccc(-c2coc3cc(O)ccc3c2=O)cc1OC | inactive |  |
| CCn1ncc(C2=NOC(C(=O)Nc3ccc4c(c3)OCO4)C2)c1C (configuration not stated) | inactive |  |
| COc1c(S(=O)(=O)n2nc(C)cc2C)ccc(Cl)c1Cl | inactive |  |
| Cn1c(SCc2ccon2)nc2ccccc2c1=O | inactive |  |
| c1ccc(C2=Nn3c(nnc3-c3ccncc3)SC2)cc1 | inactive |  |
| CCc1nc2sc3ccccc3c(=O)c2c(=O)n1Cc1ccco1 | inactive |  |
| CCOC(=O)c1[nH]c2ccccc2c1NC(=O)C(C)(C)C | inactive |  |
| Cc1cc(C)n(-c2nc3ccccc3nc2Nc2ccc(CC(=O)O)cc2)n1 | inactive |  |
| CNc1nc(C)c(C#N)c(-c2ccccc2)c1C(C)=O |  | 2330 nM |
| CCOC(=O)c1nn(-c2ccccc2C)c(=O)c(C#N)c1C | inactive |  |
| CCOC(=O)c1cc2c(=O)n3ccccc3nc2n(CCCOC)c1=NC(=O)C(C)(C)C | inactive |  |
| CCN1C(=O)c2cccc3c(S(=O)(=O)Nc4ccccn4)ccc1c23 | inactive |  |
| CCOc1ccccc1NC(=O)CN(C)S(=O)(=O)c1cccc2nsnc12 | inactive |  |

| SMILES | outcome | EC50 |
| --- | --- | --- |
| Cn1c(=O)c2c(-c3ccc(C(C)(C)C)cc3)n(N3CCOCC3)cc2n(C)c1=O | inactive |  |
| COc1ccc(OC)c(C2=NOC(C(=O)Nc3cccc(C(C)=O)c3)C2)c1 (configuration not stated) | inactive |  |
| Cc1ccc(S(=O)(=O)N2CCN(C(=O)COC(=O)c3cc(C)oc3C)CC2)cc1 | inactive |  |
| O=C(CC1SC(=NC2CCCCC2)NC1=O)Nc1ccccc1 (configuration not stated) | inactive |  |
| CC(C)C1N=C2c3ccccc3N=C(SCC#N)N2C1=O (configuration not stated) |  | 3140 nM |
| CC(C)Cn1c(-c2cccs2)nc2nc3ccccc3nc21 | inactive |  |
| O=C(OCCCCN1C(=O)c2ccccc2C1=O)c1n[nH]c2ccccc12 | inactive |  |
| COc1ccc(-c2coc3cc(O)cc(O)c3c2=O)cc1 | inactive |  |
| CCSC(C)CC1C/C(=N/O)c2c(CC)noc2C1 (configuration not stated) | inactive |  |
| CC(C)Sc1nc2c(c(=O)n1C)SC(C)C2 (configuration not stated) | inactive |  |
| CCOC(=O)c1c(-c2ccsc2)csc1N | inactive |  |
| NC(=O)CSc1nc2scc(-c3ccco3)c2c(=O)n1-c1ccccc1 |  | 1630 nM |
| CCCCNC(=O)c1ccc2nc(-c3ccco3)c(-c3ccco3)nc2c1 | inactive |  |
| CSC1=NCCN1C(=O)c1ccc(Br)o1 | inactive |  |
| O=C(c1ccco1)N1CCN(S(=O)(=O)c2ccc3c(c2)CCN3C(=O)C2CC2)CC1 | inactive |  |
| CNc1nc(C)c(C(=O)OCC(=O)OC)s1 | inactive |  |
| CCOc1ccc(CC(=O)Nc2c(C(N)=O)oc3ccccc23)cc1OCC | inactive |  |
| Clc1ccc(-n2nnnc2-c2ccccc2)cc1 | inactive |  |
| C=CCNc1sc(C(=O)C(C)(C)C)c(N)c1C#N |  | 1140 nM |
| CCOC(=O)c1c(-c2cccs2)csc1NC(=O)CSc1ncn[nH]1 | inactive |  |
| CCOc1cc(C2CC(=O)NC(SCC)=C2C#N)ccc1O (configuration not stated) | inactive |  |

| SMILES | outcome | EC50 |
| --- | --- | --- |
| CCCCn1c(=NC(=O)c2cccnc2)c(C(=O)OCC)cc2c(=O)n3ccccc3nc21 |  | 2020 nM |
| COc1ccc2[nH]c(=O)c(CN(Cc3cccs3)Cc3nnnn3C(C)(C)C)cc2c1 | inactive |  |
| O=C1CSc2ccccc2N1Cc1ccccc1F | inactive |  |
| O=c1nc2scc(-c3ccccc3)n2c2ccccc12 | inactive |  |
| CC1=CC(C)(C)N=C(NC#N)N1 | inactive |  |
| Cc1sc2ncnc(SCC(=O)N3CCCC3)c2c1C | inactive |  |
| c1ccc(C2CC(c3ccccc3)n3ncnc3N2)cc1 (configuration not stated) | inactive |  |
| COC(=O)c1sc2ccccc2c1C(=O)OC | inactive |  |
| O=CN1Cc2[nH]c3ccccc3c2N(c2ccc(Cl)cc2)C1=O | inactive |  |
| CC(=O)c1cc(C#N)c(SCC(=O)OC(C)(C)C)nc1C | inactive |  |
| O=C(NCc1ccco1)c1cnn2c(C(F)(F)F)cc(-c3ccco3)nc12 | inactive |  |
| Cc1ccc(-c2cc(-c3ccc(C)o3)nc(N)c2C#N)cc1 | inactive |  |
| COc1ccc(-n2nc3ccccc3n2)cc1 | inactive |  |
| CCOCCOC(=O)C1=C(C)Nc2ccc(C)cc2S1 | inactive |  |
| CCOC(=O)N1CCC(N2Cc3cccc(C(=O)NC(C)c4ccc5c(c4)OCCO5)c3C2=O)CC1 (configuration not stated) | inactive |  |
| N#CC1=C(N)Oc2n[nH]c(-c3cccs3)c2C1c1ccsc1 (configuration not stated) | inactive |  |
| Cn1c(=O)c2c(nc(SCCCO)n2Cc2ccccc2Cl)n(C)c1=O | inactive |  |
| CCOC(=O)C(C)Oc1cccc2c(=O)n(CC(=O)NCc3ccco3)ccc12 (configuration not stated) | inactive |  |
| Cc1cc(NS(=O)(=O)c2ccc(NC(=O)COc3ccccc3C(C)C)cc2)no1 | inactive |  |
| COC(=O)c1c(-c2ccc(F)cc2)csc1NC(=O)c1ccco1 | inactive |  |
| O=C1C(Cl)=C(NCC2CCCO2)C(=O)N1C1CCCCC1 (configuration not stated) | inactive |  |

| SMILES | outcome | EC50 |
| --- | --- | --- |
| CCn1c(SCc2cccnc2)nc2c1c(=O)n(C)c(=O)n2C | inactive |  |
| CCCC(=O)Nc1ccc(NC(=O)C2CC2)cn1 |  | 22.4 nM |
| CCC(=O)n1nc(-c2cccnc2)nc1NCc1ccc(OC)cc1 | inactive |  |
| COc1ccccc1NC(=O)N(Cc1ccc2c(c1)OCO2)Cc1nc2ccccc2c(=O)[nH]1 | inactive |  |
| Cc1c(C(=O)OCC(C)C)[nH]c2c1C(=O)CC(c1ccco1)C2 (configuration not stated) |  | 1570 nM |
| CC(C)Oc1ccccc1C1CC(=O)Nc2cc3c(cc21)OCCO3 (configuration not stated) | inactive |  |
| Cc1cccc(Cc2c(C)nc3c(C(=O)NCc4ccco4)cnn3c2C)c1 | inactive |  |
| CCCCCn1c(SCC(=O)OC)nc2c1c(=O)[nH]c(=O)n2C | inactive |  |
| CCCn1c(SCC(=O)Nc2sc(C)c(C)c2C(=O)OCC)nc2c1c(=O)n(C)c(=O)n2C | inactive |  |
| CN1CCN(CC(O)COCc2ccc3c(c2)OCO3)CC1 (configuration not stated) | inactive |  |
| CCC(=O)n1nc(-c2ccco2)nc1N | inactive |  |
| Cc1cc(C)nc(SCC(=O)N2CCCCC2)n1 | inactive |  |
| O=C1COc2ccc(C(=O)c3ccccc3)cc2CN1 | inactive |  |
| COC(=O)c1ccc(OCCn2cnc3ccccc3c2=O)cc1 | inactive |  |
| O=S(=O)(Nc1cc(Cl)ccc1N1CCCCC1)c1cccs1 | inactive |  |
| CC(C)OC(=O)CSc1nnc(-c2cnccn2)n1-c1ccccc1 | inactive |  |
| Cn1c2c(c3ccccc31)CC/C2=N\O | inactive |  |
| COc1ccc(CCN2CCCn3c2nc2c3c(=O)n(Cc3ccccc3F)c(=O)n2C)cc1OC | inactive |  |
| C=CCn1c(=O)c2c(C)c(C)sc2n2c(Nc3ccc(OC)cc3)nnc12 | inactive |  |
